In patent US10077290B2, “Stabilized antiviral fusion helices” (priority 2011, dated 2018):
Entries after “also recorded” stand apart in the source; their conditions may differ. Read-outs that look alike come from different tables or passages of the source. Bridges are numbered along the chain shown (N, C = ends). Where no end group is shown, it is not given here. [ ]: non-standard residue; d: D form. R8 = C=CCCCCCC[C@@](C)(N)C(=O)O; S5 = C=CCCC[C@](C)(N)C(=O)O

Tests used:
RSV 5-helix bundle = test: Competition fluorescence polarization assay (FPA) against FITC-RSV HR2 (488-522); format: binding, Respiratory Syncytial Virus (RSV)
Procedure: To assess binding activity toward the RSV fusogenic bundle, competition FPA was performed using recombinant five-helix bundle protein, fluorescent HR2 peptide (488-522), and serial dilutions of SAHF peptides shown in Table 2. More specifically, a 5-helix bundle protein was designed containing five of the six helices that comprise the core of the RSV-F trimer of hairpins, connected by short peptide linkers in accordance with the design of the gp41 5-helix bundle (Root et al., Science, 291:884-888, 2001). Because the 5-helix bundle lacks the third HR2 helix but is otherwise soluble, stable, and helical, incorporation of the sixth HR2 peptide in the form of FITC-RSV (488-522) yielded a stable complex, which can be competed with acetylated SAH-RSV peptides to gauge relative binding affinity.
FPA assays were used to measure and compare the relative binding activities of distinct SAHF constructs for the RSV fusion bundle. First, FITC-RSV HR2 peptide (488-522) is mixed with a serial dilution of recombinant 5-helix bundle protein to generate a binding isotherm. A fixed concentration of FITC-peptide and protein at ˜EC75 was then incubated with a serial dilution of acetylated SAHF peptide to generate competition curves for comparative analysis. Fluorescence polarization (mP units) was measured on a SpectraMax fluorimeter and IC50 values calculated by nonlinear regression analysis of competition curves using Prism software (Graphpad).

rgRSV [1] = test: rgRSV in vitro infectivity assay in Vero cells; format: cell-based, Respiratory Syncytial Virus (RSV); conditions: for inhibition of RSV infection (anti-RSV activity): rgRSV 0.1 MOI, 24 hour post-infection; for RSV infection, peptide administered before viral exposure (prophylactically): SAHF for 1 hour followed by rgRSV 0.1 MOI; for RSV infection, peptide administered after viral exposure: rgRSV 0.1 MOI for 1 hour followed by SAHF
Procedure: To test the capacity of SAHF peptides to block RSV infection of culture cells, an in vitro infectivity assay was performed in the presence and absence of SAHF peptides. Briefly, Vero cells plated in 48-well format (60,000 cells/well) were exposed to rgRSV only (0.1 MOI) and SAHF peptides, followed by imaging 24 hour post-infection to quantitate infectivity by confocal microscopy and FACS analysis Annexin V staining was also performed on harvested Vero cells to distinguish live from dead cells when calculating percent GFP positive cells.
(§1) Vero cells plated in 48-well format (60,000 cells/well) were exposed to (a) rgRSV only (0.1 MOI); (b) rgRSV for 1 hour followed by treatment with SAHF; and (c) SAHF for 1 hour followed by rgRSV infection, and then imaged 24 hour post-infection to quantitate infectivity by confocal microscopy and FACS analysis.

RgRSV [2] = test: Intranasal RgRSV infection of BALB/c mice after intranasal peptide; format: in vivo; conditions: RgRSV-infected, 125 μM intranasally
Procedure: One hour post treatment, three groups of mice were inoculated with a single dose of RgRSV at 1×10^6 pfu/mouse, with the fourth group receiving a mock inoculation. Mice were sacrificed at 24 hours post infection and the noses harvested, sectioned, stained with DAPI and imaged with an Olympus fluorescent microscope (FIG. 16A; original magnification 20×). Image J analysis was performed on the acquired images (FIG. 16B) and average GFP positive (green) and DAPI positive (blue) cells were calculated from eight images (4 sections) per mouse (bars represent percent GFP positive of total DAPI-positive cells present in the images and error bars represent mean+/−SEM. *, p<0.001). FIG. 16C depicts the results of hematoxylin and eosin staining of the nose sections (original magnification 20×, insets 100×) In FIG. 16C black arrows highlight thickened mucosa.

RSV-A2 = RSV-A2 lung infection of BALB/c mice after prophylactic intranasal peptide; format: in vivo; conditions: 125 μM intranasally, dosing and inoculation repeated at 16 hours, 4 days after second infection
Procedure: One hour post treatment, three groups of mice were inoculated with a single dose of RSV-A2 at 1×10^6 pfu/mouse. Peptide dosing and viral inoculation was repeated 16 hours post-infection. The fourth group was treated with volume-equivalent vehicle and mock-infected. Two mice from each group were sacrificed 4 days after the second infection and left lung lobes harvested after 1% paraformaldehyde perfusion, followed by cryopreservation in OCT. Sections (5 μm) were treated with 1:1000 dilution of rabbit anti-RSV polyclonal antibody (Millipore) overnight followed by anti-rabbit antibody conjugated to Alexa Fluor 555 (1:400) (red) (Molecular Probes) for 1 h. Sections were washed and mounted with medium containing DAPI (blue) and viewed with an Olympus fluorescent microscope (FIG. 17A; original magnification 20×). Image J analysis was performed on the acquired images and the percentage RSV-positive cells (red) of total DAPI-positive cells (blue) determined from 8 images (4 sections) per mice (FIG. 17B; .error bars represent mean+/−SEM; *, p<0.0001). Four days after the second infection, bronchoalveolar lavage (BAL) was performed on one mouse from each group and BAL supernatant used to determine the viral titers by plaque assay on Hep-2 cells (FIG. 17C; error bars represent mean+/−SEM of plaques counted per in vivo specimen; *, p<0.05). Also at four days after the second infection, cranial and caudal lobes of the right lung from two mice per group were snap frozen on dry ice. A lung homogenate was generated from the cranial lobe and supernatant subjected to viral titer determination (log 10 pfu/ml) (FIG. 17D; error bars represent mean+/−SEM; *, p<0.05). Total RNA was isolated from the caudal lobe of the right lung and quatitative RT-PCR was performed for the RSV-N gene. The results of this analysis are presented in FIG. 17E in which the bar graphs represent the RSV-N gene expression normalized to the mock-infected tissue.

rgRSV [3] = test: Virus-induced syncytia formation in Vero cells; format: cell-based, Respiratory Syncytial Virus (RSV); conditions: administered before or after viral exposure
Procedure: as §1

rgRSV [4] = test: Intranasal peptide followed by transnasal rgRSV infection in mice; format: in vivo; conditions: 250 μM, 25 μL intranasally four hours before rgRSV, 20 hours post-infection
Procedure: To examine the capacity of SAH-RSV peptides to inhibit RSV infection in vivo, vehicle or SAH-RSV peptide (250 μM, 25 μL) was administered to anesthetized mice intranasally followed by transnasal infection with rgRSV (5×10^5 PFU, 36 μL) four hours later. Mice were sacrificed 20 hours post-infection, and the nasal epithelium cryosectioned, stained with DAPI, and imaged using a fluorescent microscope.

“F8ASISQVXEKINQSLAFIRKSDELLHNVNAGKST (Ac-F[R8]ASISQV[S5]EKINQSLAFIRKSDELLHNVNAGKST; staple 2-9) [SAHF-G]” was tested, and the “5-helix bundle binding activity” value (RSV 5-helix bundle) was “superior 5-helix bundle binding” and the “inhibition of RSV infection (anti-RSV activity)” value (“inhibition of RSV infection” for short) (rgRSV [1]) was “superior”.
“FD8SISQVNXKINQSLAFIRK8DELLHNXNAGKST (FDXSISQVNXKINQSLAFIRKXDELLHNXNAGKST; two hydrocarbon staples; MOD_RES (3)..(3) Any amino acid; (3)..(10) Crosslink between residues; MOD_RES (10)..(10) Any amino acid; MOD_RES (22)..(22) Any amino acid; (22)..(29) Crosslink between residues; MOD_RES (29)..(29) Any amino acid) [SAHF-H, L, control]” was tested, and the “inflammation in nose sections (hematoxylin and eosin staining)” value (RgRSV [2]) was “Inflammation is noted” and the “RSV-A2 lung infection, by each measure (RSV-positive cells, BAL and lung homogenate titers, RSV-N gene)” value (RSV-A2) was “no effect”.
For “FD8SISQVNXKINQSLAFIRKSDELLHNVNAGKST (FDXSISQVNXKINQSLAFIRKSDELLHNVNAGKST; hydrocarbon staple; MOD_RES (3)..(3) Any amino acid; (3)..(10) Crosslink between residues; MOD_RES (10)..(10) Any amino acid) [SAHF-H]”, the “5-helix bundle binding activity” value (RSV 5-helix bundle) was “superior 5-helix bundle binding”, the “RSV infection, peptide administered before viral exposure (prophylactically)” value (rgRSV [1]) was “inhibited RSV infection; also recorded: blocks RSV infection of Vero cells” and the “RSV infection, peptide administered after viral exposure” value (rgRSV [1]) was “inhibited RSV infection; also recorded: blocks RSV infection of Vero cells”. For the same substance, the “inhibition of RSV infection” value (rgRSV [1]) was “superior” and the virus-induced syncytia formation (rgRSV [3]) was “blocked syncytial formation; also recorded: inhibits virus-induced syncytia formation”.
“FDA8SQVVNEXINQSLAFIRKSDELLHNVNAGKST [SAHF-I]” was tested, and the “5-helix bundle binding activity” value (RSV 5-helix bundle) was “superior 5-helix bundle binding” and the “inhibition of RSV infection” value (rgRSV [1]) was “superior”.
With “FDASISQVNEKINQSLAFI8KSDELLXNVNAGKST (Ac-FDASISQVNEKINQSLAFI[R8]KSDELL[S5]NVNAGKST; staple 20-27) [SAHF-J]” the “5-helix bundle binding activity” value (RSV 5-helix bundle) was “superior 5-helix bundle binding” and the “inhibition of RSV infection” value (rgRSV [1]) was “superior”.
For “FDASISQVNEKINQSLAFIR8SDELLHXVNAGKST (Ac-FDASISQVNEKINQSLAFIR[R8]SDELLH[S5]VNAGKST; staple 21-28) [SAHF-K]”, the “5-helix bundle binding activity” value (RSV 5-helix bundle) was “superior 5-helix bundle binding” and the “inhibition of RSV infection” value (rgRSV [1]) was “superior”.
In the case of “FDASISQVNEKINQSLAFIRK8DELLHNXNAGKST [SAHF-L, negative control]”, the “5-helix bundle binding activity” value (RSV 5-helix bundle) is reported as “no binding activity; also recorded: did not bind”, the “5-helix bundle binding activity” value (RSV 5-helix bundle; listed as SAH-RSV(L)) is reported as “poor binding activity; also recorded: incapable of binding the 5-helix bundle” and the “RSV infection, peptide administered before viral exposure (prophylactically)” value (rgRSV [1]) is reported as “little to no effect”. For the same substance, the “RSV infection, peptide administered after viral exposure” value (rgRSV [1]) was “little to no effect”, the “inhibition of RSV infection” value (rgRSV [1]) was “nor suppressed RSV infection in vitro” and the “inhibition of RSV infection” value (rgRSV [1]; listed as SAH-RSV(L)) was “no activity”. For the same substance, the “RSV infection of nasal mucosa (GFP-positive cells)” value (rgRSV [4]) was “no in vivo activity” and the virus-induced syncytia formation (rgRSV [3]) was “little to no effect”.
In the case of “FDAXISQXNEKINQSLAFIRKSDELLHNVNAGKST (Ac-FDA[S5]ISQ[S5]NEKINQSLAFIRKSDELLHNVNAGKST; staple 4-8) [SAHF-C]”, the “5-helix bundle binding activity” value (RSV 5-helix bundle) is reported as “bound the 5-helix bundle”, the “inhibition of RSV infection” value (rgRSV [1]) is reported as “suppressed RSV infection in vitro” and the “RSV infection of nasal mucosa (GFP-positive cells)” value (rgRSV [4]) is reported as “markedly suppressed RSV infection; also recorded: blocks trans-nasal RSV infection in mice”.
